Consider 1 compound from patent US20040047894A1, “Preparation for improved dietary utilisation” (priority 2001, published 2004).

Experiment [1] concerns ICR mice. Put plainly: Four-week feeding experiment: bodyweight, feed intake and feed utilization. The class given is in vivo. The following applies: four weeks.
The test system of experiment [2] is ICR mice. The following applies: 1.0% calendic acid (ethyl ester) in feed, six weeks.
Experimental: 5-6-week-old male and female ICR mice were obtained from Charles River. 18 animals (9 m/w) were randomly assigned to each experimental group. The animals were raised in groups of 3 animals at 20° C. in a 12-hour light/dark cycle. […] It comprised the following components: sucrose, casein, corn starch, DL-methionin, 5.5% of a mixture of vegetable oils (so that the feed comprised 0.6% linolenic acid and 3% linoleic acid of the total lipids), mineral and vitamin mix and Ethoxyquin (0.1 g/kg). In the experimental feed, the amount of vegetable oils was replaced by the corresponding amount of calendic acid. Calendic acid was present here as the ethyl ester and was obtained from calendula oil (BiRo, Sommerschenburg, Germany).
After a one-week adaptation period on control feed, a six-week experiment was carried out. Body weight and feed intake were measured weekly. At the end of the study the animals were killed and viscera and organs such as liver, heart and lungs were removed. The empty carcasses were frozen in liquid nitrogen, homogenized, and the contents of fat, protein and ash were determined by standard methods.

Consider `CCCCC\C=C/C=C/C=C/CCCCCCC(=O)O` [Calendic acid, calendic acid], for which, in the experiment on ICR mice [1] (male ICR mice, calendula oil 0.5-2.0% in feed), the “feed intake, male animals” value is “dose-dependent effect towards reduced feed intake”. Moreover, in the experiment with ICR mice [1] (male ICR mice, calendula oil 0.5-2.0% in feed, dose-dependent, FIG. 3), the “feed utilization, male animals” value is “significantly improved”. The weight gain entry with ICR mice [1] (male and female ICR mice, calendula oil 0.5-2.0% in feed, FIG. 1) was “without affecting weight gain”. Also, the feed intake result in the experiment on ICR mice [1] (male and female ICR mice, corn oil in feed replaced by crude calendula oil 0.5, 1.0 or 2.0% (approx. 62% calendic acid as triglyceride), FIG. 2) is “reduced feed intake”. Further, the “changes in body weight versus control group” value in the experiment on ICR mice [2] (ICR mice) is given as “comparable”. The “fat content in the experimental animals” value in the experiment with ICR mice [2] (ICR mice, effect greater in male than in female animals) was “significantly decreased the fat content”. In the experiment with ICR mice [2] (female ICR mice, control 10.3% fat), the “Body fat content (in % of body composition), female animals” value worked out at 9.5% fat. The “Body fat content (in % of body composition), male animals” value in the experiment with ICR mice [2] (male ICR mice, control 12.2% fat) worked out at 8.0% fat.
